From patent US7449459B2, “Inhibitors of soluble adenylate cyclase” (Bayer Schering Pharma AG, priority 2006, dated 2008)

Molecular target: soluble, sperm-specific adenylate cyclase (sAC) (Homo sapiens, UniProt Q96PN6)
Experiment: sAC-Assay (HTRF cAMP detection)
Format: biochemical
Conditions: inhibition of the soluble adenylate cyclase
From the text: In a suitable buffer system, the soluble, sperm-specific adenylate cyclase catalyzes the reaction of adenosine triphosphate (ATP) to cyclic adenosine monophosphate (cAMP) and pyrophosphate. Free cAMP that is generated in this way is then used in a competitive detection process, in which the binding of a europium kryptate (Eu[K])-labeled anti-cAMP antibody (anti cAMP-Eu[K]-AK) to a cAMP-molecule-labeled, modified allophycocyanine-1 molecule (cAMP-XL665) is prevented. In the absence of exogenic cAMP, after excitation at 335 nm, it results in a fluorescence resonance energy transfer (FRET) between the anti cAMP-Eu[K]-AK (FRET-donor) and the cAMP-XL665 molecule (FRET-acceptor). This process is quantified at different times (time-resolved) based on the emission of FRET-acceptor XL665 (665 nm and 620 nm). A signal drop (measured as a wave ratio; calculation formula: [(E665 nm/E620 nm)×10000]) can be attributed to the presence of cAMP and thus to the activity of sAC.
First, 1.5 μl of the test substance (in 30% DMSO), only 30% DMSO in the solvent controls, is introduced per recess in a 384-hole test plate (polystyrene; 384, NV). […]
After an additional incubation of 90 minutes at room temperature, the HTRF result is measured either on the Packard Discovery or with the RubiStar HTRF measuring device (Delay: 50 μs; Integration time: 400 μs).

Sequence of soluble, sperm-specific adenylate cyclase (sAC) (Q96PN6 whole entry): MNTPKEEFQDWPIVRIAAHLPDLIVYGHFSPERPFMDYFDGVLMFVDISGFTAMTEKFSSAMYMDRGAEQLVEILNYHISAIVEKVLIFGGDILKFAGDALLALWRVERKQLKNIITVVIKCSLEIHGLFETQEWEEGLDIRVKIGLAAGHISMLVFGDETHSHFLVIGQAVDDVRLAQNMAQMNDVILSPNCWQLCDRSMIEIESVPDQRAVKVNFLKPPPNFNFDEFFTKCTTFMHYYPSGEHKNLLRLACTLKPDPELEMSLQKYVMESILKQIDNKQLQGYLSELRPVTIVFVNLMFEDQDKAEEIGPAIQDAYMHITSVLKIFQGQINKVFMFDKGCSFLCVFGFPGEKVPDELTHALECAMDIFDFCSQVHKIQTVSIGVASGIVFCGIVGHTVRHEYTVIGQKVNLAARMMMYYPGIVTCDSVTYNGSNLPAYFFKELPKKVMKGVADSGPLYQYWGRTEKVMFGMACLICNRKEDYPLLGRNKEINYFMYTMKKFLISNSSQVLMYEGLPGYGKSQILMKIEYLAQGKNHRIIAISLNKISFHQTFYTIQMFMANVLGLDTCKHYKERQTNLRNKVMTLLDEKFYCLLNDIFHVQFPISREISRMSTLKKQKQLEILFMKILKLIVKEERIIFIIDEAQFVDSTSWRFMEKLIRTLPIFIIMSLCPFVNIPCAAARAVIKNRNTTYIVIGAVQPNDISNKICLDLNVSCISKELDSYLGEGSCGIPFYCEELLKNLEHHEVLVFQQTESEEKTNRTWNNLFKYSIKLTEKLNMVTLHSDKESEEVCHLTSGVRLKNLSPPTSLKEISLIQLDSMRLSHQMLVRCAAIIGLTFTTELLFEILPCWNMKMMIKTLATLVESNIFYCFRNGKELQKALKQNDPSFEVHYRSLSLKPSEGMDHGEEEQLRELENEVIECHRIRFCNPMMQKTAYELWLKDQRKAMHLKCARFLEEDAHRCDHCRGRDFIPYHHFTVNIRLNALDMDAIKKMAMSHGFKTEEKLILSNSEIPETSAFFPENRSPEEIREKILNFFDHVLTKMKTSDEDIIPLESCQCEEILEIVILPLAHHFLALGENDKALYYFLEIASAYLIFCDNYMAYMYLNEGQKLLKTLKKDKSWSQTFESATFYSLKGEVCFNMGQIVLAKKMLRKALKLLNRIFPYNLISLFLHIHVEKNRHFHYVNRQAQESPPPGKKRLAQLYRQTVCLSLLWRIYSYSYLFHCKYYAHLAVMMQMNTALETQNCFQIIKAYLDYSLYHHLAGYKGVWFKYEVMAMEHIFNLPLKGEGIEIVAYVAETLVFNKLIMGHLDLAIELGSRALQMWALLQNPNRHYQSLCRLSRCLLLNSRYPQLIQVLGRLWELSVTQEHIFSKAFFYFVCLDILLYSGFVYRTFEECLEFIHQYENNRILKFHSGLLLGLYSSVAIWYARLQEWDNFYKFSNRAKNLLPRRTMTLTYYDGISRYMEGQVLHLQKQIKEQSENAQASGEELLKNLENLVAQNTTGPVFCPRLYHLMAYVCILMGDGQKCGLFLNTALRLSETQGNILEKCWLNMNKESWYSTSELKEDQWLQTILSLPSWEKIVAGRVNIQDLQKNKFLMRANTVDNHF

Structure (SMILES) | IC50
CC(C)(C)c1ccc(S(=O)(=O)Nc2ccc3[nH]c(/C=C/C(=O)NCCN4CCOCC4)c(-c4ccccc4)c3c2)cc1 | 3.5 µM
CC(O)CNC(=O)/C=C/c1[nH]c2ccc(NS(=O)(=O)c3ccc(C(C)(C)C)cc3)cc2c1-c1ccccc1 (racemic) [(±)-(E)-3-[5-(4-tert-Butyl-phenylsulfonylamino)-3-phenyl-1H-indol-2-yl]-N-(2-hydroxy-propyl)-acrylic acid amide] | 4.4 µM
